# Laboratory results taken from patent US8314150B2, “Kinase protein binding inhibitors” (priority 2008, dated 2012).
# Tested on: FAK wildtype fibroblasts (MEFs)
# Test: MTT cell viability assay, FAK wildtype vs FAK null fibroblasts
# Type: cell-based
# Conditions: 72 hours, p<0.05
# Procedure: The 3-(4,5-dimethylthiazol-2-yl)-5-(3-carboxymethoxyphenyl)-2-(4-sulfophenyl)-2H-tetrazolium compound from Promega Viability kit (Madison, Ill.) was added, and the cells were incubated at 37° C. for 1-2 hours. The optical density on 96-plate was analyzed with a microplate reader at 490 nm to determine cell viability. In addition, cells were stained with trypan blue after 24 hours of treatment with Y15 and the percent of cells that stained positive were determined with a hemacytometer. Cell adhesion assay—The poly-L-Lysine or Collagen (5 μg/ml) coated 96-well plates were blocked with the blocking buffer (medium with 0.5% BSA) for 1 hour at 37 C. […] Then 2% SDS was added to the dried plated and OD at 590 nm was measured for detecting cell adhesion. […] Protein concentrations were determined using a Bio-Rad Kit. The boiled samples were loaded on Ready SDS-10% PAGE gels (Bio Rad, Inc) and used for Western blot analysis with the protein-specific antibody. […] Detachment Assay—Cells were plated with and without inhibitors for 24 hours, and detached and attached cells were counted in a hemocytometer. We calculated the percent of detachment by dividing the number of detached cells by the total number of cells. The percent of detached cells was calculated in three independent experiments. […] For each experiment 300 cells per treatment were counted. […]
compound,measurement,value
"Cl.Cl.Cl.Cl.Nc1cc(N)c(N)cc1N [Y15, 1,2,4,5-benzenetetraamine tetrahydrochloride]",dose from which viability of FAK wildtype fibroblasts decreased compared to FAK null fibroblasts,0.1 µM
